These results are taken from US7897591B2, “Method of treating fatty liver disease” (priority 2005, dated 2011).

Molecules are shown by their SMILES.

In this assay the test system is IL-6. Description: ELISA for serum IL-6 levels. Type of assay: in vivo, mouse. As to conditions: HCD+MAR vs HCD-only group, P=0.001. Here is the method:
Control animals (n=5) received normal chow and water ad libitum. All animals in the experimental groups were fed a fat-free, high carbohydrate liquid diet (HCD) ad libitum placed in one bottle per cage as previously described (3, 62). No additional sources of nutrition or hydration were provided. The HCD liquid solution contained 20% dextrose, a commercial mixture of 2% essential and nonessential amino acids (TrophAmine, B. Braun Medical, Irvine, Calif.), 2 ml trace elements (Trace Elements Injection 4, USP—Pediatric, American Regent Shirley, N.Y.), and 5 ml multivitamins (M.V.I. Pediatric™, Mayne Pharma, Paramus, N.J.). Each liter of HCD contained 30 meq sodium, 20 meq potassium chloride, 15 meq calcium, 10 meq magnesium, and 10 mM phosphate. The bottles were replaced daily with fresh HCD solution. HCD animals (n=5) received HCD only and no additional treatment for 19 days. The HCD+MAR animals (n=15) additionally received 100 mg/kg of Marimastat™ in 0.45% methylcellulose (Sigma-Aldrich Corporation, St. Louis, Mo.) vehicle twice daily via orogastric gavage. The animals were individually weighed every third day and at sacrifice. Mouse serum IL-6 levels were determined using a commercial ELISA kit (Quantikine®, R&D systems, Inc., Minneapolis, Minn.). Optical density was read at 450 nm and analyzed with Softmax® PRO Software (Molecular Devices Corporation, Sunnyvale, Calif.).
A general note: ELISA stands for enzyme-linked immunosorbent assay.

Turning to `CNC(=O)[C@@H](NC(=O)[C@H](CC(C)C)[C@H](O)C(=O)NO)C(C)(C)C` [Marimastat], the “serum IL-6 level” value is listed as “significantly higher”.
